Data set [1] concerns Myzus persicas resistant to organic phosphorous agents and carbamate agents. The experiment in a line: Test for Myzus persicas resistant to organic phosphorous agents and carbamate agents. Format: in vivo. Particulars: effective component concentration of 500 ppm; spray on egg plant; 24 hours after spraying. The procedure: (§1) In order to obtain a preparation of a proper active compound, 1 part by weight of an active compound was mixed with the stated amounts of solvent and emulsifier and the mixture was diluted to a specified concentration with water.
About 200 head per plantlet of cultivated Myzus persicas resistant to phosphorous agents and carbamate agents were inoculated on an egg plant. The aqueous dilution containing the above prepared active compound having a specified concentration was sprayed on the egg plant in a sufficient amount by a spray gun one day after the inoculation. The egg plant was allowed to stand in a 28° C. green house, to calculate the insecticidal ratio 24 hours after the solution was sprayed. In this case, the test was made twice repeatedly.

The test system of data set [2] is Spodoptera litura larvae. The experiment in a line: Test for Spodoptera litura larvae (leaf dip). Particulars: effective component concentration of 500 ppm, 3rd-instar larvae on dipped sweet potato leaves, after 7 days; for pest or weed control at 500 ppm: foliar, 168 h, read-out: insecticidal ratio. Format: in vivo. The procedure:
as §1
The leaves of sweat potatoes were dipped in the test solution diluted to a specified concentration with water. After these leaves were dried in air to remove the chemical solution, they were placed in a Petri dish of 9 cm in diameter, in which 10 Spodoptera litura larvae of the 3rd-instar were set free. The Petri dish was placed in a thermostatic chamber kept at 25° C. and the leaves of sweat potatoes were added after 2 days and 4 days, to examine the number of dead larvae after 7 days, thereby calculating the insecticidal ratio of the chemical solution.
In this test, an average of the results in two Petri dishes in one section was calculated.

The subject of data set [3] is Aulacophora femoralis. The experiment in a line: Test for Aulacophora femoralis (spray test). It is filed as in vivo. Particulars: effective component concentration of 500 ppm; 2nd-instar, dipped cucumber leaves; after 7 days. The procedure:
as §1
The leaves of cucumbers were dipped in the aqueous solution diluted to a specified concentration with water. After the chemical solution was dried in air, these leaves were placed in a plastic cup, in which sterilized black soil was placed. 5 Aulacophora femoralis of the 2nd-instar were set free in the soil, to examine the number of dead insects after 7 days, thereby calculating the insecticidal ratio of the chemical solution.

For data set [4], the system named is Lucilia cuprina larvae. The data set is described as follows: Test for Lucilia cuprina larvae. It is filed as in vivo. Particulars: 48 h, read-out: larval mortality. The method, then: 20 mg of active compound are dissolved in 1 ml of dimethyl sulphoxide. To prepare a suitable formulation (e.g. 100 ppm), the active compound solution is diluted to the respective desired concentration with water (e.g. 1 part by weight active compound solution with 199 parts by weight water).
Approximately 20 Lucilia cuprina larvae are introduced into a test tube which contains approx. 1 cm^3 horse meat and 0.5 ml of the active compound preparation to be tested. After 48 hours, the efficacy of the active compound preparation is determined as % larval mortality. 0%: no larvae were killed, 100%: all larvae were killed.

Data set [5] has as its system Ctenocephalides felis, strain "Georgi". The data set is described as follows: Test for cat fleas / oral uptake. It is filed as in vivo. Particulars: in Bos taurus, 48 h, read-out: kill (mortality). The method, then:
20 mg of the active compound are dissolved in 1 ml dimethylsulphoxide To prepare a suitable formulation (e.g. 100 ppm), the active compound solution is diluted to the respective desired concentration with cattle blood (e.g. 1 part by weight active compound solution with 199 parts by weight cattle blood).
20 unfed adult fleas (Ctenocephalides felis, strain “Georgi”) are placed into a chamber (Ø 5 cm) whose top and bottom are closed with gauze. A metal cylinder whose underside is covered with parafilm is placed onto the chamber. The cylinder contains the blood/active compound formulation which can be taken up by the fleas through the parafilm membrane. Whereas the blood is warmed to 37° C., the temperature in the area of the flea chambers is adjusted to room temperature.
After the desired time the mortality in % is determined. Here 100% means that all fleas were killed; 0% means that no fleas were killed.

Turning to `N#Cc1cc(C2=NOC(c3cc(Cl)cc(Cl)c3)(C(F)(F)F)C2)ccc1-n1cnnn1` (stereo not drawn) [Compound 153], the insecticidal ratio in data set [1], in data set [2] and in data set [3] was 100% throughout.
One may read the melting point as the temperature of the solid-liquid transition. Compound `FC(F)(F)c1nnnn1-c1ccc(C2=NOC(c3cc(Cl)cc(Cl)c3)(C(F)(F)F)C2)cc1` (stereo not drawn) registered a melting point of 147 to 151 °C.
`FC(F)(F)C1(c2cc(Cl)cc(Cl)c2)CC(c2ccc(-n3cnnn3)c(Cl)c2)=NO1` (racemic) [Compound 150]: the insecticidal ratio in data set [2] and in data set [3] was 100% throughout.
Consider `N#Cc1cc(C2=NOC(c3cccc(C(F)(F)F)c3)(C(F)(F)F)C2)ccc1-n1cc([N+](=O)[O-])cn1` (stereo not drawn) [Compound 38], for which the insecticidal ratio in data set [1], in data set [2] and in data set [3] was 100% each time.
On to `N#Cc1cc(C2=NOC(c3cc(C(F)(F)F)cc(C(F)(F)F)c3)(C(F)(F)F)C2)ccc1-n1cncn1` (racemic) [Compound 135], for which the insecticidal ratio in data set [1], in data set [2] and in data set [3] was 100% each time.
In the case of `O=[N+]([O-])c1cc(C2=NOC(c3cc(Cl)cc(Cl)c3)(C(F)(F)F)C2)ccc1-n1cnnn1` (stereo not drawn) [Compound 154], the insecticidal ratio in data set [2] and in data set [3] was 100% each time.
Consider `N#Cc1cc(C2=NOC(c3cccc(C(F)(F)F)c3)(C(F)(F)F)C2)ccc1-n1cnnn1` (stereo not drawn) [Compound 160], for which the insecticidal ratio in data set [2] and in data set [3] was 100% throughout.
Consider `CCC(=O)Nc1cc(C2=NOC(c3cc(Cl)cc(Cl)c3)(C(F)(F)F)C2)ccc1-n1cncn1` (racemic) [Compound 107], for which the insecticidal ratio in data set [2] and in data set [3] was 100% throughout.
For the compound `N#Cc1cc(C2=NOC(c3cc(C(F)(F)F)cc(C(F)(F)F)c3)(C(F)(F)F)C2)ccc1-n1cnnn1` (stereo not drawn) [Compound 165], the insecticidal ratio in data set [2] and in data set [3] was 100% in each case.
`FC(F)(F)C1(c2cc(Cl)cc(Cl)c2)CC(c2ccc(-n3cncn3)cc2)=NO1` (racemic) [Compound 91]: the insecticidal ratio in data set [2] and in data set [3] was 100% throughout.
Take `N#Cc1cc(C2=NOC(c3cccc(C(F)(F)F)c3)(C(F)(F)F)C2)ccc1-n1cncn1` (racemic) [Compound 126]: the insecticidal ratio in data set [2] and in data set [3] was 100% in each case.
Consider `O=[N+]([O-])c1cc(C2=NOC(c3cc(C(F)(F)F)cc(C(F)(F)F)c3)(C(F)(F)F)C2)ccc1-n1cnnn1` (stereo not drawn) [Compound 166, 1-(4-{5-[3,5-bis(trifluoromethyl)phenyl]-5-(trifluoromethyl)-4,5-dihydroisoxazol-3-yl}-2-nitrophenyl)-1H-tetrazole], for which, in data set [2], the pest or weed control at 500 ppm was determined as 100%. The insecticidal ratio in data set [3] came out at 100%.
The compound `FC(F)(F)C1(c2cc(Cl)cc(Cl)c2)CC(c2ccc(-n3cccc3)cc2)=NO1` (stereo not drawn) registered a melting point of 206 to 208 °C.
For the compound `FC(F)(F)c1cc(C(F)(F)F)cc(C2(C(F)(F)F)CC(c3ccc(-n4cncn4)c(Br)c3)=NO2)c1` (racemic) [Compound 134], the insecticidal ratio in data set [2] and in data set [3] was 100% each time.
As to `FC(F)(F)C1(c2cc(Cl)cc(Cl)c2)CC(c2ccc(-n3cncn3)nc2)=NO1` (racemic) [Compound 114], the insecticidal ratio in data set [2] and in data set [3] was 100% each time.
With `FC(F)(F)c1cc(C(F)(F)F)cc(C2(C(F)(F)F)CC(c3ccc(-n4cncn4)cc3)=NO2)c1` (racemic) [Compound 132], the insecticidal ratio in data set [2] and in data set [3] was 100% throughout.
Consider `FC(F)(F)C1(c2cc(Cl)cc(Cl)c2)CC(c2ccc(-n3cnnn3)cc2)=NO1` (stereo not drawn) [Compound 148, 1-{4-[5-(3,5-dichlorophenyl)-5-(trifluoromethyl)-4,5-dihydroisoxazol-3-yl]phenyl}-1H-tetrazole], for which the pest or weed control at 500 ppm in data set [2] worked out at 100%. Further, the insecticidal ratio in data set [3] was 100%.
With `FC(F)(F)c1cccc(C2(C(F)(F)F)CC(c3ccc(-n4cncn4)cc3)=NO2)c1` (racemic) [Compound 122], the insecticidal ratio in data set [2] and in data set [3] was 100% each time.
As to `O=[N+]([O-])c1cc(C2=NOC(c3cc(Cl)cc(Cl)c3)(C(F)(F)F)C2)ccc1-n1cncn1` (stereo not drawn) [Compound 104, 1-{4-[5-[3,5-dichlorophenyl]-5-(trifluoromethyl)-4,5-dihydroisoxazol-3-yl]-2-nitrophenyl}-1H-1,2,4-triazole], the pest or weed control at 500 ppm in data set [2] came to 100%. Besides, the insecticidal ratio in data set [3] stood at 100%.
Consider `N#Cc1cc(C2=NOC(c3cc(Cl)cc(Cl)c3)(C(F)(F)F)C2)ccc1-n1cncn1` (stereo not drawn) [Compound 101, 5-[5-(3,5-dichlorophenyl)-5-(trifluoromethyl)-4,5-dihydroisoxazol-3-yl)-2-(1H-1,2,4-triazol-1-yl)benzonitrile], for which the insecticidal ratio in data set [1] and in data set [3] was 100% in each case. Besides, the pest or weed control at 500 ppm in data set [2] is 100%.
With `FC(F)(F)C1(c2cc(Cl)cc(Cl)c2)CC(c2ccc(-n3cnnn3)c(Br)c2)=NO1` (stereo not drawn) [Compound 151], the insecticidal ratio in data set [2] and in data set [3] was 100% throughout.
In the case of `O=[N+]([O-])c1cc(C2=NOC(c3cccc(Cl)c3)(C(F)(F)F)C2)ccc1-n1cncn1` (racemic) [Compound 90], the insecticidal ratio in data set [2] and in data set [3] was 100% in each case.
A word on the mortality: it is the share of the test organisms that died. Take `N#Cc1cc(C2=NOC(c3cc(Cl)cc(Cl)c3)(C(F)(F)F)C2)ccc1-n1cc(Cl)cn1` (stereo not drawn) [Compound 17]: the mortality at 100 ppm in data set [4] is above 95%; in data set [5], above 80%. Moreover, the pest or weed control at 500 ppm in data set [2] was 100%.
Take `COC(=O)Nc1cc(C2=NOC(c3cc(Cl)cc(Cl)c3)(C(F)(F)F)C2)ccc1-n1cncn1` (racemic) [Compound 109]: the insecticidal ratio in data set [2] and in data set [3] was 100% throughout.
Consider `COc1cc(C2=NOC(c3cc(Cl)cc(Cl)c3)(C(F)(F)F)C2)ccc1-n1cncn1` (racemic) [Compound 103], for which the insecticidal ratio in data set [2] and in data set [3] was 100% throughout.
With `N#Cc1cc(C2=NOC(c3cc(Cl)cc(Cl)c3)(C(F)(F)F)C2)ccc1-n1cc(N)cn1` (stereo not drawn) [Compound 181], the insecticidal ratio in data set [2] and in data set [3] was 100% throughout.
In the case of `N#Cc1cc(C2=NOC(c3cc(Cl)cc(Cl)c3)(C(F)(F)F)C2)ccc1-n1cc([N+](=O)[O-])cn1` (stereo not drawn) [Compound 21], the insecticidal ratio in data set [2] and in data set [3] was 100% throughout.

Values taken from patent publication US20110086886A2, “INSECTICIDAL ISOXAZOLINES” (Bayer CropScience AG, priority 2006, published 2011).
